Laboratory results published in ChEMBL document CHEMBL5291721, “A preclinical secondary pharmacology resource illuminates target-adverse drug reaction associations of marketed drugs” (Nat Commun, 2023).

What was measured:
[1] = molecular target: Gamma-aminobutyric acid receptor subunit alpha-1 (Rattus norvegicus, UniProt P62813); type: functional
[2] = molecular target: Growth hormone secretagogue receptor type 1 (Homo sapiens, UniProt Q92847)
[3] = molecular target: T1, 5-hydroxytryptamine receptor 3A (Homo sapiens, UniProt P46098); type: functional
T1 sequence (P46098 whole entry): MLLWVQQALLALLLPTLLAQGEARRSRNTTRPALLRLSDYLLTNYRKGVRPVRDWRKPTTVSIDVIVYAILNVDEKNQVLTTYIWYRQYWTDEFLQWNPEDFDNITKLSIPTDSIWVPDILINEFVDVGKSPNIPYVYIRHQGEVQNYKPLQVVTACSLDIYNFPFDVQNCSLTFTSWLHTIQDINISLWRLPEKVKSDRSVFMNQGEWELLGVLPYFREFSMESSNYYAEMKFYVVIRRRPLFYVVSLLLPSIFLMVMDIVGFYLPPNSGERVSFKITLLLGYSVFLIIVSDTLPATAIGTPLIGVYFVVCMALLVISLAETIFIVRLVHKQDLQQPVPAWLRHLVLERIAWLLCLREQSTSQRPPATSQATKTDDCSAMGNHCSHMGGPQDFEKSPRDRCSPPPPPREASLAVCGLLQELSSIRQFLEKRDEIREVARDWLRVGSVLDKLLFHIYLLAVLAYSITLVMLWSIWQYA

[4] = molecular target: Melanocortin receptor 3 (Homo sapiens, UniProt P41968)
Chain of Melanocortin receptor 3 (P41968 whole entry): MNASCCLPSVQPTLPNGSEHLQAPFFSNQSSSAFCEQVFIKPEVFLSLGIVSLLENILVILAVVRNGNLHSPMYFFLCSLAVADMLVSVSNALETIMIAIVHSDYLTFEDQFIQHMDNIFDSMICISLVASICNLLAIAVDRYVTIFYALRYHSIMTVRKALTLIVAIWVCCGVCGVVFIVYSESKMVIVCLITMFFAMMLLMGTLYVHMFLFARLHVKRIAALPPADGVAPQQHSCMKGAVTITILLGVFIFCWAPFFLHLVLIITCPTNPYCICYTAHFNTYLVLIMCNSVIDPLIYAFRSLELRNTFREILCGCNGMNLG

[5] = molecular target: Motilin receptor (Homo sapiens, UniProt O43193)
Chain of Motilin receptor (O43193 whole entry): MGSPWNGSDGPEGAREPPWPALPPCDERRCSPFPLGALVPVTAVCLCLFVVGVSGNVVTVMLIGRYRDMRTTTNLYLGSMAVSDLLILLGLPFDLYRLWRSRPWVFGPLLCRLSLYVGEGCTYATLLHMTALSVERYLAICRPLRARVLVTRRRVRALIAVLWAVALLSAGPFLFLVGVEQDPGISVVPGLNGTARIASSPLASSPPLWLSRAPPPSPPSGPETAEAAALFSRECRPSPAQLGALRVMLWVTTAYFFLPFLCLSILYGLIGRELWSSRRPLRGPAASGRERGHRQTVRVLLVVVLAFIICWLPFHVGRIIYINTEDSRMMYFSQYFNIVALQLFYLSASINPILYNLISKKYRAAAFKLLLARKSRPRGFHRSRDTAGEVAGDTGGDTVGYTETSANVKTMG

[6] = molecular target: T2, Prostaglandin G/H synthase 1 (Rattus norvegicus, UniProt Q63921); type: functional
T2 sequence (Q63921 whole entry): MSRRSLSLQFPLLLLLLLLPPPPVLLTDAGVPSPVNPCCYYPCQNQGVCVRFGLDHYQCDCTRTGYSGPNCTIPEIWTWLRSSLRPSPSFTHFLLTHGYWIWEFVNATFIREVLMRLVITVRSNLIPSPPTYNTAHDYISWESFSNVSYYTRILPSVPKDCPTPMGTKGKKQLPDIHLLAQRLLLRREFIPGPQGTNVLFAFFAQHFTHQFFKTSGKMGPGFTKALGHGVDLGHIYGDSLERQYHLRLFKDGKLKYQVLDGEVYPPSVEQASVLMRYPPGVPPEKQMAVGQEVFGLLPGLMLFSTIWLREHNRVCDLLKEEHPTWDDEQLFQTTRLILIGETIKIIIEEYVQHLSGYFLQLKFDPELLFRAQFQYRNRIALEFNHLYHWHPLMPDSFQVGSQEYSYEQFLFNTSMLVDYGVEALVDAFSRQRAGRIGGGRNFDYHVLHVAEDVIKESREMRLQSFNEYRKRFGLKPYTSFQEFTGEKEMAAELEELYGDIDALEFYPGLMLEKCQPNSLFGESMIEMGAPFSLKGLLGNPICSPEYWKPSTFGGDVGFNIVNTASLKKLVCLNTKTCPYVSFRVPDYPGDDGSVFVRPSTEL

[7] = molecular target: T3, Equilibrative nucleoside transporter 1 (Homo sapiens, UniProt Q99808)
T3 sequence (Q99808 whole entry): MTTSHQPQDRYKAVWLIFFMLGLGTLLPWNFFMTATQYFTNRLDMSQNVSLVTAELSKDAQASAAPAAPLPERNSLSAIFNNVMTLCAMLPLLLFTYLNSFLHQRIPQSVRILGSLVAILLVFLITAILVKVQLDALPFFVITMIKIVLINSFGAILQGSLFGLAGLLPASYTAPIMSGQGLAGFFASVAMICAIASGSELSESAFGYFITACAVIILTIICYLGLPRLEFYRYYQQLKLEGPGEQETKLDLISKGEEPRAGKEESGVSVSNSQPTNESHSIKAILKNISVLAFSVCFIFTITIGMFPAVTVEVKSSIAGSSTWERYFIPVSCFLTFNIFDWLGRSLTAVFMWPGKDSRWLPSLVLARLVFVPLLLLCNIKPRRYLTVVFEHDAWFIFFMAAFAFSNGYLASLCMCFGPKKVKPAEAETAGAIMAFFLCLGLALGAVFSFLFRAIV

[8] = molecular target: T4, Thromboxane A2 receptor (Homo sapiens, UniProt P21731)
T4 sequence (P21731 whole entry): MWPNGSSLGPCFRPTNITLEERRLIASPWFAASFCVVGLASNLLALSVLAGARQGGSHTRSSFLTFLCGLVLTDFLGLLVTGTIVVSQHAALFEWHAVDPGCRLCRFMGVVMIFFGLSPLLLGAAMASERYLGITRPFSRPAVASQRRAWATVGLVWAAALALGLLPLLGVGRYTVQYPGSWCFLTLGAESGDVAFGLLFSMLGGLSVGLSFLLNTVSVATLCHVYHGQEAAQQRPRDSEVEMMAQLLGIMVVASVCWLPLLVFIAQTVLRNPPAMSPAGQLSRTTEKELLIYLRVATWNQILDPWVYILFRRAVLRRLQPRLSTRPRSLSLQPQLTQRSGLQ

[9] = molecular target: T5, Alpha-1A adrenergic receptor (Homo sapiens, UniProt P35348); type: functional, cell-based
T5 sequence (P35348 whole entry): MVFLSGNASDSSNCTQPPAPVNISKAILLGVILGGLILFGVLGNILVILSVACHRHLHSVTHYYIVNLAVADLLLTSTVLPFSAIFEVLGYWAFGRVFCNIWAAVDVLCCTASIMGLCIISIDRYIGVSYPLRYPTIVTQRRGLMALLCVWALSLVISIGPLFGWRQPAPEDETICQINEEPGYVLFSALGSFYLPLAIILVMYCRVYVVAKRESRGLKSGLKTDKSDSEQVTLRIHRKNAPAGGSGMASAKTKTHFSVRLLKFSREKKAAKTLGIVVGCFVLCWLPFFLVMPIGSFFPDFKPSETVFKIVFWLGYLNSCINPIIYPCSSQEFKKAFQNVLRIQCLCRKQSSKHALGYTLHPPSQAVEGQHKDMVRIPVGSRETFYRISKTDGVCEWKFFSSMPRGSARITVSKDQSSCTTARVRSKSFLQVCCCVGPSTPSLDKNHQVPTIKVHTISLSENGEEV
Note: assay procedure not described here.

Chain of Growth hormone secretagogue receptor type 1 (Q92847 whole entry): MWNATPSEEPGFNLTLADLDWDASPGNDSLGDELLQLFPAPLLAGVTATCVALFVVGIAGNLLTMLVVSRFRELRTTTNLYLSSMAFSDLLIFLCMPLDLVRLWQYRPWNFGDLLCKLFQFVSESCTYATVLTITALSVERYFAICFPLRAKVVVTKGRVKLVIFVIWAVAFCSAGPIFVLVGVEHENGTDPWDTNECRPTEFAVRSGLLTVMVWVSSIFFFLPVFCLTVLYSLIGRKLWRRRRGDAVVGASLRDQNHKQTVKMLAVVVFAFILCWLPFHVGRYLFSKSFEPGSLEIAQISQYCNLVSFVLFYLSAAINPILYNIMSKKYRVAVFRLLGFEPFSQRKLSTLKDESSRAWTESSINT
Chain of Gamma-aminobutyric acid receptor subunit alpha-1 (P62813 whole entry): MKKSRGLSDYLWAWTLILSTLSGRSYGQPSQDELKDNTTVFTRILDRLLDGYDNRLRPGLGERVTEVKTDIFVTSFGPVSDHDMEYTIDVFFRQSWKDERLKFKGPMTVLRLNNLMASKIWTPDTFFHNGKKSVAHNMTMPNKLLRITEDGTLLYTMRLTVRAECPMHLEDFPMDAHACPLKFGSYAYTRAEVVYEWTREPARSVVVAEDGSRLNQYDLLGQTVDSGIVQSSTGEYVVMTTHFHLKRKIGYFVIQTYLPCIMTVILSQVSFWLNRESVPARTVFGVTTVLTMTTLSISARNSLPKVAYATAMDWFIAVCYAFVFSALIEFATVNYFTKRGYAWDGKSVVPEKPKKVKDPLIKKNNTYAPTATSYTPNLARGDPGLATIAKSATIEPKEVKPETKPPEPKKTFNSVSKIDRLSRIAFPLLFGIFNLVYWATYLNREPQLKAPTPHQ

Row | Compound | AC50 [1] [µM] | AC50 [2] [µM] | AC50 [3] [µM] | AC50 [4] [µM] | AC50 [5] [µM] | AC50 [6] [µM] | AC50 [7] [µM] | AC50 [8] [µM] | AC50 [9] [µM]
1 | CCC1(CCC(C)C)C(=O)NC(=O)NC1=O [AMOBARBITAL] | > 10 | > 10 | > 30 | > 10 | > 10 | > 10 | > 10 | > 10 | –
2 | COc1ccc(C2C(=O)c3ccccc3C2=O)cc1 [ANISINDIONE] | > 10 | > 10 | > 30 | > 10 | > 10 | 13 | > 10 | > 10 | –
3 | O=C(O)CCNC(=O)c1ccc(/N=N/c2ccc(O)c(C(=O)O)c2)cc1 [BALSALAZIDE] | > 30 | > 30 | 15 | > 30 | > 30 | > 30 | 30 | > 30 | –
4 | O=C(O)c1ccc(NC(=O)[C@H](Cc2ccc(O)cc2)NC(=O)c2ccccc2)cc1 [BENTIROMIDE] | > 10 | > 10 | > 30 | > 10 | > 10 | > 10 | > 10 | > 10 | –
5 | NS(=O)(=O)c1cc2c(cc1Cl)N=C(CSCc1ccccc1)NS2(=O)=O [BENZTHIAZIDE] | > 10 | > 10 | > 10 | > 10 | > 10 | > 10 | > 10 | > 10 | –
6 | CO/N=C(\C(=O)N[C@@H]1C(=O)N2C(C(=O)O)=CCS[C@H]12)c1csc(N)n1 [CEFTIZOXIME] | – | > 30 | – | > 30 | > 30 | > 30 | > 30 | – | > 30
7 | CO/N=C(\C(=O)N[C@@H]1C(=O)N2C(C(=O)O)=C(CSc3nc(=O)c(=O)[nH]n3C)CS[C@H]12)c1csc(N)n1 [CEFTRIAXONE] | > 30 | > 30 | > 30 | > 30 | > 30 | > 30 | > 30 | – | > 30
8 | C[C@@H]1C[C@H]2[C@@H]3CCC4=CC(=O)C=C[C@]4(C)[C@@]3(F)[C@@H](O)C[C@]2(C)[C@@]1(O)C(=O)CO [DEXAMETHASONE] | > 10 | > 30 | > 30 | > 30 | > 30 | > 30 | > 30 | > 30 | –
9 | CC(C)[C@@H](C)/C=C/[C@@H](C)[C@H]1CC[C@H]2/C(=C/C=C3\C[C@@H](O)CC[C@@H]3C)CCC[C@]12C [DIHYDROTACHYSTEROL] | > 10 | > 10 | > 30 | > 10 | > 10 | > 10 | > 10 | > 10 | –
10 | CC(C)NC[C@H](O)COc1ccc(CC(N)=O)cc1 [ESATENOLOL] | – | > 30 | > 10 | > 30 | > 10 | > 30 | > 30 | > 30 | –
11 | CCCC(C)(COC(N)=O)COC(N)=O [MEPROBAMATE] | > 10 | > 10 | > 30 | > 10 | > 10 | > 10 | > 10 | > 10 | –
12 | O=C(c1cc(Cc2n[nH]c(=O)c3ccccc23)ccc1F)N1CCN(C(=O)C2CC2)CC1 [OLAPARIB] | > 10 | > 30 | > 30 | > 30 | > 30 | > 30 | > 30 | > 30 | –
13 | CO[C@H]1C[C@H](O[C@H]2CC[C@@]3(C)[C@H](CC[C@@H]4[C@@H]3CC[C@]3(C)[C@@H](C5=CC(=O)OC5)[C@@H](OC(C)=O)C[C@]43O)C2)O[C@@H](C)[C@@H]1O [OLEANDRIN] | > 30 | – | > 30 | – | – | – | – | – | > 30
14 | Fc1ccc([C@@H]2CCNC[C@H]2COc2ccc3c(c2)OCO3)cc1 [PAROXETINE] | > 10 | > 30 | > 10 | > 30 | > 10 | > 30 | > 30 | > 30 | –
15 | NC(=O)NC(=O)Cc1ccccc1 [PHENACEMIDE] | > 10 | > 10 | > 30 | > 10 | > 10 | > 10 | > 10 | > 10 | –
16 | CCCN(CCC)S(=O)(=O)c1ccc(C(=O)O)cc1 [PROBENECID] | > 10 | > 10 | > 30 | > 10 | > 10 | > 10 | > 10 | > 10 | –
17 | O=c1c(O)c(-c2ccc(O)c(O)c2)oc2cc(O)cc(O)c12 [QUERCETIN] | – | > 30 | > 30 | > 30 | > 10 | > 30 | > 30 | > 30 | –
18 | CC1=C(/C=C/C(C)=C/C=C/C(C)=C/CO)C(C)(C)CCC1 [RETINOL] | > 10 | > 10 | > 30 | > 10 | > 10 | > 10 | > 10 | > 10 | –
19 | Cc1cc(C)nc(NS(=O)(=O)c2ccc(N)cc2)n1 [SULFAMETHAZINE] | > 10 | > 10 | > 30 | > 10 | > 10 | > 10 | > 10 | > 10 | –
20 | CCOC(=O)[C@@H](N)Cc1ccc(-c2cc(O[C@H](c3ccc(Cl)cc3-n3ccc(C)n3)C(F)(F)F)nc(N)n2)cc1 [TELOTRISTAT ETHYL] | > 30 | 28 | 24 | 12 | – | > 30 | > 30 | – | > 30
21 | CCCCCCCC(=O)CC[C@@H]1[C@@H](C/C=C\CCCC(=O)OC(C)C)[C@@H](O)C[C@H]1O [UNOPROSTONE ISOPROPYL] | – | – | – | 27 | – | > 30 | – | – | –
